Results from patent US20250235543A1, “MODIFIED PROTEINS AND PROTEIN DEGRADERS” (Cullgen (Shanghai), Inc., priority 2021, published 2025).

Columns and labels:
[1] = test system: cyclin D1; assay: Cyclin D1 percentage degradation in Calu-1 cells (immunoblotting); assay type: cell-based; conditions: 10 μM, 16 hours
How it was run: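 Cells were rinsed once in cold PBS and lysed in cold RIPA buffer containing protease and phosphatase inhibitors, with gentle agitation at 4° C. for 30 min. Lysates were spun at 13,000 rpm for 10 min at 4° C., protein was measured by BCA, and samples were boiled in Laemmli buffer at 99° C. for 5 min before SDS-PAGE immunoblotting.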

[2] = target: T1, CDK4 (Homo sapiens, UniProt P11802); assay: CDK4 percentage degradation in Calu-1 cells (immunoblotting); assay type: cell-based; conditions: Calu-1 cells, 10 μM, 16 hours; read-out: CDK4 Degradation (10 μM)
T1 construct: endogenous in cells; host or cells: Calu-1
T1 sequence (P11802 2-303 limits assumed): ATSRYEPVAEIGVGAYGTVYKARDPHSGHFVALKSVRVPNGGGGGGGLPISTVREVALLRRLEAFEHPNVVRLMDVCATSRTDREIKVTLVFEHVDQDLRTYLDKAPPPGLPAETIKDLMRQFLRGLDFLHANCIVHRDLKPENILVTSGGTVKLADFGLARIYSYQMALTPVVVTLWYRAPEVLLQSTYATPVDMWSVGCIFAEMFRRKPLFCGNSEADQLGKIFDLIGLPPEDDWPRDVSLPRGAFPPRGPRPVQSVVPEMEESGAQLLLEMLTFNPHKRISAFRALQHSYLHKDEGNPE
T1 sequence (P24385 whole entry partner): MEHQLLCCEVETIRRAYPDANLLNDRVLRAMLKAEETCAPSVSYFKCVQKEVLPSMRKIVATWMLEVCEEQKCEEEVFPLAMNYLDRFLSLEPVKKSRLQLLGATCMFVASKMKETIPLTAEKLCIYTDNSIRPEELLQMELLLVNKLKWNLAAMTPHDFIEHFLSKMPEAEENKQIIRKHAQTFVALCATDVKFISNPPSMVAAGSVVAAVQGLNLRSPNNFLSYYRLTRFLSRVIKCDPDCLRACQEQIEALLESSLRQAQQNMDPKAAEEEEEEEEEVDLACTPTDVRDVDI
T1 sequence (Q16531 2-1140 limits assumed, further chain): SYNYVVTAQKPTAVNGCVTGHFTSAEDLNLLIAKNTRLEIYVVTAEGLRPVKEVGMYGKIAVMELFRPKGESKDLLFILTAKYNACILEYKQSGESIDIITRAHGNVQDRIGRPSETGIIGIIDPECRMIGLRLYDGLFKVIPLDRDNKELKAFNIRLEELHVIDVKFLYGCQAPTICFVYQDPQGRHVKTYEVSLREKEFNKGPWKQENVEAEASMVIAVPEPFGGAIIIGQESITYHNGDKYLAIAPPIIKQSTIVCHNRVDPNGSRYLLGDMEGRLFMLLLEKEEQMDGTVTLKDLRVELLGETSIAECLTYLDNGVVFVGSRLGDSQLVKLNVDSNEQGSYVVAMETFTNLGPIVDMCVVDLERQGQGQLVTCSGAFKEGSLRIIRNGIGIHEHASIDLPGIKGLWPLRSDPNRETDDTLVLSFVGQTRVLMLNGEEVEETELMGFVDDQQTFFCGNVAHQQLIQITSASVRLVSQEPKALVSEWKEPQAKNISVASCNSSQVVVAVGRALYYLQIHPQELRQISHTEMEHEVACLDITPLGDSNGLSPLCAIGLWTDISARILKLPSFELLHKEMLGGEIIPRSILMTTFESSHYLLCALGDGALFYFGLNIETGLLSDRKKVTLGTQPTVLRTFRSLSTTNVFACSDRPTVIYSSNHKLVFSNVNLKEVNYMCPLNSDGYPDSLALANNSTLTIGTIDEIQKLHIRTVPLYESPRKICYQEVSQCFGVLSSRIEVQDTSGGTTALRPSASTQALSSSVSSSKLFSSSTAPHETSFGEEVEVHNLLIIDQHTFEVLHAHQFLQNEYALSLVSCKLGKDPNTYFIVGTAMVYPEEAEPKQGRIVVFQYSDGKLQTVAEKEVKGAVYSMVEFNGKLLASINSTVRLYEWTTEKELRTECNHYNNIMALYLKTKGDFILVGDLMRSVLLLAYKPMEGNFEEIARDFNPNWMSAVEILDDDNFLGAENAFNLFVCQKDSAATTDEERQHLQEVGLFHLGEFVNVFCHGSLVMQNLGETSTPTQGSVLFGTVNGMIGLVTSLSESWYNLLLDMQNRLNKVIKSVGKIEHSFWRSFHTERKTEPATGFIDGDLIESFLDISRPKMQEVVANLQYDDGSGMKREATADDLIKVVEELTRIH
How it was run: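 Cultured cells were rinsed once in cold PBS and lysed in cold RIPA buffer containing protease and phosphatase inhibitors, with gentle agitation at 4° C. for 30 min. Lysates were centrifuged at 13,000 rpm for 10 min at 4° C., and protein was quantified by BCA. Samples were then separated by SDS-PAGE, detected with ECL, and the CDK4 bands quantified in Image Lab.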

Row | inhibition at 10 µM [2] [%] | Structure (SMILES) | CyclinD1 Degradation (10 μM) [1]
1 | 30 to 50 | Cc1nc(NC(=O)c2ccccc2NC(=O)CCCCNC(=O)CN2CCN(c3ccc(Nc4ncc5cc(C(=O)N(C)C)n(C6CCCC6)c5n4)nc3)CC2)sc1C [CPD-289, 7-Cyclopentyl-2-((5-(4-(2-((5-((2-((4,5-dimethylthiazol-2-yl)carbamoyl)phenyl)amino)-5-oxopentyl)amino)-2-oxoethyl)piperazin-1-yl)pyridin-2-yl)amino)-N,N-dimethyl-7H-pyrrolo[2,3-d]pyrimidine-6-carboxamide] | A (protein percentage degradation >= 80%)
2 | 30 to 50 | Cc1nc(NC(=O)c2ccccc2NC(=O)CCCCCNC(=O)CN2CCN(c3ccc(Nc4ncc5cc(C(=O)N(C)C)n(C6CCCC6)c5n4)nc3)CC2)sc1C [CPD-290, 7-Cyclopentyl-2-((5-(4-(2-((6-((2-((4,5-dimethylthiazol-2-yl)carbamoyl)phenyl)amino)-6-oxohexyl)amino)-2-oxoethyl)piperazin-1-yl)pyridin-2-yl)amino)-N,N-dimethyl-7H-pyrrolo[2,3-d]pyrimidine-6-carboxamide] | B (protein percentage degradation < 80%, and >= 50%)
3 | 30 to 50 | Cc1nc(NC(=O)c2ccccc2NC(=O)CCCCCCNC(=O)CN2CCN(c3ccc(Nc4ncc5cc(C(=O)N(C)C)n(C6CCCC6)c5n4)nc3)CC2)sc1C [CPD-291, 7-Cyclopentyl-2-((5-(4-(2-((7-((2-((4,5-dimethylthiazol-2-yl)carbamoyl)phenyl)amino)-7-oxoheptyl)amino)-2-oxoethyl)piperazin-1-yl)pyridin-2-yl)amino)-N,N-dimethyl-7H-pyrrolo[2,3-d]pyrimidine-6-carboxamide] | B (protein percentage degradation < 80%, and >= 50%)
4 | < 30 | Cc1nc(NC(=O)c2ccccc2NC(=O)CCCCCCCNC(=O)CN2CCN(c3ccc(Nc4ncc5cc(C(=O)N(C)C)n(C6CCCC6)c5n4)nc3)CC2)sc1C [CPD-292, 7-Cyclopentyl-2-((5-(4-(2-((8-((2-((4,5-dimethylthiazol-2-yl)carbamoyl)phenyl)amino)-8-oxooctyl)amino)-2-oxoethyl)piperazin-1-yl)pyridin-2-yl)amino)-N,N-dimethyl-7H-pyrrolo[2,3-d]pyrimidine-6-carboxamide] | B (protein percentage degradation < 80%, and >= 50%)
5 | 50 to 80 | Cc1nc(NC(=O)c2ccccc2NC(=O)CCCCCCCCNC(=O)CN2CCN(c3ccc(Nc4ncc5cc(C(=O)N(C)C)n(C6CCCC6)c5n4)nc3)CC2)sc1C [CPD-293, 7-Cyclopentyl-2-((5-(4-(2-((9-((2-((4,5-dimethylthiazol-2-yl)carbamoyl)phenyl)amino)-9-oxononyl)amino)-2-oxoethyl)piperazin-1-yl)pyridin-2-yl)amino)-N,N-dimethyl-7H-pyrrolo[2,3-d]pyrimidine-6-carboxamide] | A (protein percentage degradation >= 80%)
6 | 50 to 80 | Cc1nc(NC(=O)c2ccccc2NC(=O)CCOCCNC(=O)CN2CCN(c3ccc(Nc4ncc5cc(C(=O)N(C)C)n(C6CCCC6)c5n4)nc3)CC2)sc1C [CPD-294, 7-Cyclopentyl-2-((5-(4-(2-((2-(3-((2-((4,5-dimethylthiazol-2-yl)carbamoyl)phenyl)amino)-3-oxopropoxy)ethyl)amino)-2-oxoethyl)piperazin-1-yl)pyridin-2-yl)amino)-N,N-dimethyl-7H-pyrrolo[2,3-d]pyrimidine-6-carboxamide] | A (protein percentage degradation >= 80%)
7 | 50 to 80 | Cc1nc(NC(=O)c2ccccc2NC(=O)CCOCCOCCNC(=O)CN2CCN(c3ccc(Nc4ncc5cc(C(=O)N(C)C)n(C6CCCC6)c5n4)nc3)CC2)sc1C [CPD-295, 7-Cyclopentyl-2-((5-(4-(2-((2-(2-(3-((2-((4,5-dimethylthiazol-2-yl)carbamoyl)phenyl)amino)-3-oxopropoxy)ethoxy)ethyl)amino)-2-oxoethyl)piperazin-1-yl)pyridin-2-yl)amino)-N,N-dimethyl-7H-pyrrolo[2,3-d]pyrimidine-6-carboxamide] | A (protein percentage degradation >= 80%)
8 | 50 to 80 | Cc1nc(NC(=O)c2ccccc2NC(=O)CCOCCOCCOCCNC(=O)CN2CCN(c3ccc(Nc4ncc5cc(C(=O)N(C)C)n(C6CCCC6)c5n4)nc3)CC2)sc1C [CPD-296, 7-Cyclopentyl-2-((5-(4-(15-((2-((4,5-dimethylthiazol-2-yl)carbamoyl)phenyl)amino)-2,15-dioxo-6,9,12-trioxa-3-azapentadecyl)piperazin-1-yl)pyridin-2-yl)amino)-N,N-dimethyl-7H-pyrrolo[2,3-d]pyrimidine-6-carboxamide] | A (protein percentage degradation >= 80%)
9 | 50 to 80 | Cc1nc(NC(=O)c2ccccc2NC(=O)CCOCCOCCOCCOCCNC(=O)CN2CCN(c3ccc(Nc4ncc5cc(C(=O)N(C)C)n(C6CCCC6)c5n4)nc3)CC2)sc1C [CPD-297, 7-Cyclopentyl-2-((5-(4-(18-((2-((4,5-dimethylthiazol-2-yl)carbamoyl)phenyl)amino)-2,18-dioxo-6,9,12,15-tetraoxa-3-azaoctadecyl)piperazin-1-yl)pyridin-2-yl)amino)-N,N-dimethyl-7H-pyrrolo[2,3-d]pyrimidine-6-carboxamide] | A (protein percentage degradation >= 80%)
10 | 50 to 80 | Cc1nc(NC(=O)c2ccccc2NC(=O)CCOCCOCCOCCOCCOCCNC(=O)CN2CCN(c3ccc(Nc4ncc5cc(C(=O)N(C)C)n(C6CCCC6)c5n4)nc3)CC2)sc1C [CPD-298, 7-Cyclopentyl-2-((5-(4-(21-((2-((4,5-dimethylthiazol-2-yl)carbamoyl)phenyl)amino)-2,21-dioxo-6,9,12,15,18-pentaoxa-3-azahenicosyl)piperazin-1-yl)pyridin-2-yl)amino)-N,N-dimethyl-7H-pyrrolo[2,3-d]pyrimidine-6-carboxamide] | A (protein percentage degradation >= 80%)
11 | 30 to 50 | Cc1nc(NC(=O)c2ccccc2NC(=O)CCOCCOCCOCCOCCOCCOCCNC(=O)CN2CCN(c3ccc(Nc4ncc5cc(C(=O)N(C)C)n(C6CCCC6)c5n4)nc3)CC2)sc1C [CPD-299, 7-Cyclopentyl-2-((5-(4-(24-((2-((4,5-dimethylthiazol-2-yl)carbamoyl)phenyl)amino)-2,24-dioxo-6,9,12,15,18,21-hexaoxa-3-azatetracosyl)piperazin-1-yl)pyridin-2-yl)amino)-N,N-dimethyl-7H-pyrrolo[2,3-d]pyrimidine-6-carboxamide] | B (protein percentage degradation < 80%, and >= 50%)
12 | < 30 | Cc1nc(NC(=O)c2ccccc2NC(=O)CNC(=O)CN2CCN(c3ccc(Nc4ncc(F)c(-c5cc(F)c6nc(C)n(C(C)C)c6c5)n4)nc3)CC2)sc1C [CPD-300, N-(4,5-Dimethylthiazol-2-yl)-2-(2-(2-(4-(6-((5-fluoro-4-(4-fluoro-1-isopropyl-2-methyl-1H-benzo[d]imidazol-6-yl)pyrimidin-2-yl)amino)pyridin-3-yl)piperazin-1-yl)acetamido)acetamido)benzamide] | D (protein percentage degradation < 30%)
